Measurements: patent publication USRE39420E1, “1,2-Diphenylpyrrole derivatives, their preparation and their therapeutic uses” (Sankyo Company, Limited, priority 1996, dated 2006)

How the values were obtained:
[1] = test system: IL-1β production in human peripheral monocytes; experiment: Inhibitory effect on IL-1β production in LPS-stimulated human peripheral monocytes; format: cell-based; settings: Monocyte, LPS 10 μg/ml, 20 hours
Experimental: (§1) (1) Peripheral blood was collected from healthy human volunteers in the presence of heparin. After mixing it with an equal volume of phosphate-buffered saline (PBS, Nissui Pharmaceutical), the mixture was layered onto Ficoll Paque medium (Pharmacia) at the rate of 2:1 and centrifuged at 520×g at 25° C. for 20 minutes. After centrifugation, the monocyte layer was removed and suspended in RPMI 1640 (Nissui Pharmaceutical) containing 10% fetal calf serum (FCS). The monocytes were washed once with the same medium, placed in a plastic Petri dish, pre-treated with human plasma and incubated for 2 hours in the presence of 5% CO2 to cause them to adhere to the dish. After incubation, the Petri dish was washed twice with PBS to remove the non-adherent cells. Thereafter, PBS containing 5% FCS and 0.2% EDTA was added to the Petri dish and the dish was allowed to stand undisturbed for 15 minutes at 4° C. The monocytes were recovered from the dish by pipetting. The cells were finally suspended in RPMI 1640 at a concentration of 1.25×10^5 cells/ml. (2) Culture of Human Monocytes
(§2) A 40 μl solution of the test compound and 40 μl of lipopolysaccharide (LPS; E. coli, 0.26:B6, Difco), adjusted to a final concentration of 10 μg/ml, were added to 320 μl of cell suspension. The resulting mixture was then cultured for 20 hours in the presence of 5% CO2 and the supernatant was removed at the end of cultivation to assay IL-1β and TNFα. The test compound was dissolved in dimethyl sulfoxide and diluted by a factor of 100 with FCS to reach 10 times the final concentration (the final concentrations of dimethyl sulfoxide and FCS were 0.1% and 10%, respectively).
(§3) The amount of IL-1β was measured with a commercially available ELISA kit (Cayman), after diluting the supernatant medium by a factor of 15 or 30 with the ELISA buffer. The amount of TNFα was similarly measured by a ELISA kit (Genzyme) after diluting the supernatant by a factor of 2.
(§4) The IC50 was calculated from the regression line determined by the inhibition rates and the concentrations of the test compound.

[2] = test system: yeast-inflamed pain in rats; experiment: Analgesic effect on yeast-inflamed pain in rats (Randall-Selitto method); format: in vivo, Wistar-Imamichi rats; settings: Rattus norvegicus, oral, pain threshold 0.5, 1 and 2 hours after administration, read-out: Efficacy Rate (No. of animals in which drug was effective/No. of animals used in test) (converted)
Experimental: The compound was suspended in 0.5%tragacanth and administered orally at a volume of 5 ml/kg. The control group was administered with 0.5% tragacanth only as a vehicle.
Wistar-Imamichi rats (males, 5 week old, body weights: 80-100 g) were used in this test.
The test was conducted in accordance with the method of Winter and Flataker [J. Pharmacol. Exp. Ther. 150, 165-171, (1965)], which is a modification of the original method of Randall and Selitto [Arch. Int. Pharmacodyn. Ther. 111, 405-419, (1957)]. The rats were fasted for 16 hours prior to use. Inflammation was induced by subcutaneous injection of 0.1 ml of a suspension of 20% beer yeast (Sigma) into the right hind footpad of the animal. After 4.5 hours, increasing pressure was applied to the inflamed footpad at a constant speed using an Analgesy meter (Trade mark) (Ugo-Basile Co.).
First the average of pain threshold values at each time point (0.5, 1, and 2 hr) was calculated in a control group. If a pain threshold value exceeded 2 times the control average value at the same time point even once in the drug-treated groups, then the animal was considered to indicate efficacy. Efficacy rates of the drug were estimated by the evaluation method of Blake [J. Pharm. Pharm. 19, 367-373, (1967)].

[3] = test system: Carrageenan-induced Paw Edema in rats; experiment: Carrageenan-induced paw edema test; format: in vivo, Wistar-Imamichi rats; settings: Rattus norvegicus, oral, 3 hours after carrageenan, read-out: Inhibition Rate (%)
Experimental: The same test compounds were subjected to the test as those in the Randall-Selitto test of Experiment 3. Wistar-Imamichi rats (males, 6 week old, body weights: 110-120 g) were used in this test.
The method of Winter, et al. [Proc. Soc. Exp. Biol. Med. 111, 544-547, (1962)] was slightly modified to perform the test [Sankyo Annual Research Report 39, 77-111, (1989)]. The rats were fasted for 16 hours prior to use. Inflammatory edema was induced by the subcutaneous injection of 0.05 ml of a 1% carrageenan (Viscarin 402) solution into the right hind paw of the animal. The test compounds were administered orally 30 minutes before injection of carrageenan. The volume of the right hind foot was measured with a Plethysmometer (Trade mark) (Ugo-Basile Co.) just before administration of the test compound and 3 hours after injection of carrageenan to determine the edema intensity [(right foot volume after 3 hours/right foot volume before injection)-1].

[4] = test system: TNFα production in human peripheral monocytes; experiment: Inhibitory effect on TNFα production in LPS-stimulated human peripheral monocytes; format: cell-based; settings: Monocyte, LPS 10 μg/ml, 20 hours
Experimental: as §1, §2, §3, §4

[5] = test system: scald-induced Pain in rats; experiment: Scald-induced pain test; format: in vivo, Wistar-Imamichi rats; settings: oral; pain response time, mean of 1 and 2 hours after dosing
Experimental: The test was conducted in accordance with the method of Iizuka and Tanaka [Jpn. J. Pharmacol. 70, 697, (1967)]. The test compound was administered in the same manner as in Experiment 3. Male Wistar-Imamichi rats (4-5 week old, body weights: approximately 100 g) were used after fasting for 16 hours. The right hind foot of the animal was immersed in hot water at 57° C. for 6 seconds to induce scald under ether-anesthesia. Two hours later, the scald foot of the rat was irritated by immersing in hot water at 40° C. for 5 seconds, and the animal was returned to the cage. […] Lifting up the scalded foot or licking it without coming in contact with the metal cage were considered to be pain responses. Pain response time was determined as the total time of the pain response during the 30-second observation period. […] Pain response time was again measured 1 and 2 hours after dosing and the mean value was determined. Using the mean values, inhibition rates were calculated relative to the control group. ID50 was calculated from the regression line determined by the inhibition rates and the doses.

gastric mucosa = experiment: Irritative effect on gastric mucosa; format: in vivo, Wistar rats; settings: oral; dose producing 50% incidence of gastric ulcers, 3.5 hours after dosing
Experimental: Experiments were performed according to the method described by Jahn and Adrian [Arzneim.-Forsch. 19, 36, (1969)]. Male Wistar rats weighing approximately 120 g were fasted for 16 hours before the experiment. The drugs were administered orally to rats as described in Experiment 3. Three and the half hours after dosing, the animals were killed under ether-anesthesia and the stomachs were placed into 1% of formalin. The stomach was opened by cutting along the greater curvature and the number and length of lesions were counted under a microscope (6.3×10). The ulcerogenicity in each animal was assessed according to Hitchens et. al. [Pharmacologist 9, 242, (1967)]. Incidence was determined as the rate of rats with 4 or more ulcers of more than 0.5 mm length, and UD50's (doses producing 50% incidence) were calculated from the incidence and the dose by probit (=probability unit) method.

yeast-induced fever = experiment: Antipyretic effect on yeast-induced fever; format: in vivo, Wistar-Imamichi rats; settings: Dose: 0.4 mg/kg, oral; mean of 1 and 2 hours after dosing
Experimental: The method of Roszkowski et al. [J. Pharmacol. Exp. Ther. 179, 114, (1971)] was slightly modified to perform the test. The test compound was administered in the same manner as in Experiment 3. Male Wistar-Imamichi rats (6 week old, body weights: approximately 120 g) were used in the test. Yeast (Brewer's yeast, Sigma) was suspended in physiological saline to a concentration of 25%, finely crushed in an agate mortar, and injected subcutaneously into the backs of the rats under ether-anesthesia at a volume of 2 ml/rat. The rats were fasted after the injection of yeast. On the following day (19 hours after the yeast injection), a catheter-type thermistor thermometer (Japan Koden, MGA III) was inserted approximately 5 cm into the rectum to measure the temperature of the animals. […] Rectal temperatures were measured 1 and 2 hours after administration of the test compound, and fever temperature was calculated by subtracting the normal temperature of healthy animals measured simultaneously. Inhibition rate of the group treated with the compound relative to the control group was calculated by using the mean value at 1 and 2 hours after dosing.

[6] = test system: LTB4 production from human peripheral monocytes; experiment: Inhibitory effect on LTB4 production from human peripheral monocytes; format: cell-based; settings: Monocyte, LTB4 in culture supernatant, ELISA
Experimental: The isolation of monocytes was carried out as described in Experiment 2-(1).
The cell culture was carried out as described in Experiment 2-(2).
The supernatant of the culture medium after incubation was subjected to the ELISA assay (Cayman). IC50 values were calculated by the least square method from the regression line determined by the inhibition rates and the doses.

Row | Compound | responders at 12.5 mg/kg [2] | inhibition in vivo at 50 mg/kg [3] | inhibition at 10 µM [4] | also measured
1 | CS(=O)(=O)c1ccc(-c2cccn2-c2ccc(F)cc2F)cc1 [Example 7, 1-(2,4-Difluorophenyl)-2-(4-methylsulfonylphenyl) pyrrole] | 100% | 56% |  | inhibition at 10 µM [1]: 42.6%
2 | CS(=O)(=O)c1ccc(-c2ccc(F)n2-c2ccc(F)cc2)cc1 [Example 41, 5-Fluoro-1-(4-fluorophenyl)-2-(4-methylsulfonylphenyl)pyrrole] |  | 60% |  | inhibition at 10 µM [1]: 51.2%
3 | CS(=O)(=O)c1ccc(-c2ccc(C(F)(F)F)n2-c2ccc(F)cc2)cc1 [Example 44, 5-Trifluoromethyl-1-(4-fluorophenyl)-2-(4-methylsulfonylphenyl)pyrrole] |  |  |  | melting point: 136 to 139 °C
4 | CS(=O)(=O)c1ccc(-c2cc(C(F)F)cn2-c2ccc(F)cc2)cc1 [Example 49, 1-(4-Fluorophenyl)-4-difluoromethyl-2-(4-methylsulfonylphenyl)pyrrole] |  |  | 40.9% | 
5 | COc1ccc(-n2cccc2-c2ccc(S(C)(=O)=O)cc2)cc1F [Example 54, 1-(3-Fluoro-4-methoxyphenyl)-2-(4-methylsulfonylphenyl)pyrrole] |  |  | 54.7% | 
6 | CCOc1ccc(-c2cc(C)cn2-c2ccc(S(N)(=O)=O)cc2)cc1 [Example 67, 2-(4-Ethoxyphenyl)-4-methyl-1-(4-sulfamoylphenyl) pyrrole] | 100% | 64% |  | ID50 [5]: 1.6 mg/kg; UD50 (gastric mucosa): >100 mg/kg; Inhibition Rate (%) (yeast-induced fever): 78%
7 | CCCOc1ccc(-c2cc(C)cn2-c2ccc(S(N)(=O)=O)cc2)cc1 [Example 68, 4-Methyl-2-(4-propoxyphenyl)-1-(4-sulfamoylphenyl)pyrrole] |  |  | 42.6% | 
8 | Cc1cc(-c2ccc(C)c(C)c2)n(-c2ccc(S(N)(=O)=O)cc2)c1 [Example 78, 4-Methyl-2-(3,4-dimethylphenyl)-1-(4-sulfamoylphenyl)pyrrole] | 100% | 66% |  | UD50 (gastric mucosa): >100 mg/kg; IC50 [6]: 310 nM
9 | COc1ccc(-c2cc(Cc3ccc(OC)c(OC4CCCC4)c3)cn2-c2ccc(S(N)(=O)=O)cc2)cc1 [Example 81, 4-(3-Cyclopentyloxy-4-methoxybenzyl)-2-(4-methoxyphenyl)-1-(4-sulfamoylphenyl)pyrrole] |  |  | 46.1% | 
10 | CSc1ccc(-n2cc(C)cc2-c2ccc(S(N)(=O)=O)cc2)cc1 [Example 84, 4-Methyl-1-(4-methylthiophenyl)-2-(4-sulfamoylphenyl)pyrrole] | 100% | 66% |  | UD50 (gastric mucosa): >100 mg/kg; Inhibition Rate (%) (yeast-induced fever): 64%
11 | CSc1ccc(-n2c(C)ccc2-c2ccc(S(N)(=O)=O)cc2)cc1 [Example 90, 5-Methyl-1-(4-methylthiophenyl)-2-(4-sulfamoylphenyl)pyrrole] |  | 64% |  | inhibition at 10 µM [1]: 62.2%
